{"source": "ChEMBL document CHEMBL5584333", "about": "“Evo312: An Evodiamine Analog and Novel PKCβI Inhibitor with Potent Antitumor Activity in Gemcitabine-Resistant Pancreatic Cancer” (J Med Chem, 2024)", "key": {"PANC-1": {"system": "PANC-1", "assay": "Cytotoxicity against human PANC-1 cells assessed as inhibition of cell growth incubated for 72 hrs by SRB assay", "assay_type": "functional, cell-based", "details": "PANC-1, 72 h"}, "[1]": {"assay": "Cytotoxicity against human MRC5 cells assessed as inhibition of cell growth incubated for 72 hrs by SRB assay", "assay_type": "toxicity, cell-based"}, "[2]": {"system": "Gemcitabine-resistant PANC-1", "assay": "Inhibition of p70S6K phosphorylation in human Gemcitabine-resistant PANC-1 cells at 160 nM incubated for 24 hrs by phospho-kinase array analysis", "assay_type": "cell-based"}, "[3]": {"assay": "Cytotoxicity against HPDE6c7 cells assessed as inhibition of cell growth incubated for 72 hrs by SRB assay", "assay_type": "toxicity, cell-based", "details": "human"}, "[4]": {"biological_target": "T1, Protein kinase C beta type (Homo sapiens, UniProt P05771)", "assay": "Inhibition of recombinant full length N-terminal GST-tagged human PKCbeta1 expressed in baculovirus infected Sf9 insect cells using ERMRPRKRQGSVRRRV as substrate incubated for 60 mins in presence of ATP by ADP-glo reagent based luminometric analysis"}, "[5]": {"biological_target": "T1, Protein kinase C beta type", "assay": "Inhibition of PKCbeta1 in human Gemcitabine-resistant PANC-1 cells incubated for 24 hrs", "assay_type": "cell-based", "details": "dose 40-200 nM"}, "[6]": {"system": "Gemcitabine-resistant PANC-1", "assay": "Downregulation of PKCbeta1 expression in human Gemcitabine-resistant PANC-1 cells at 40 to 160 nM incubated for 24 hrs by Western blotting", "assay_type": "functional, cell-based", "details": "dose 40-160 nM"}, "[7]": {"system": "Gemcitabine-resistant PANC-1", "assay": "Downregulation of PKCalpha expression in human Gemcitabine-resistant PANC-1 cells at 40 to 160 nM incubated for 24 hrs by Western blotting", "assay_type": "functional, cell-based", "details": "dose 40-160 nM"}, "[8]": {"system": "Gemcitabine-resistant PANC-1", "assay": "Downregulation of PKCdelta expression in human Gemcitabine-resistant PANC-1 cells at 40 to 160 nM incubated for 24 hrs by Western blotting", "assay_type": "functional, cell-based", "details": "dose 40-160 nM"}, "[9]": {"biological_target": "Proline-rich AKT1 substrate 1 (Homo sapiens) (UniProt Q96B36)", "assay": "Inhibition of PRAS40 phosphorylation in human Gemcitabine-resistant PANC-1 cells at 160 nM incubated for 24 hrs by phospho-kinase array analysis", "assay_type": "cell-based"}, "[10]": {"system": "Gemcitabine-resistant PANC-1", "assay": "Downregulation of p-Akt expression in human Gemcitabine-resistant PANC-1 cells at 40 to 160 nM incubated for 24 hrs by Western blotting", "assay_type": "functional, cell-based", "details": "dose 40-160 nM"}, "[11]": {"system": "Gemcitabine-resistant PANC-1", "assay": "Downregulation of p-p70S6K expression in human Gemcitabine-resistant PANC-1 cells at 40 to 160 nM incubated for 24 hrs by Western blotting", "assay_type": "functional, cell-based", "details": "dose 40-160 nM"}, "[12]": {"system": "Gemcitabine-resistant PANC-1", "assay": "Downregulation of p-PRAS40 expression in human Gemcitabine-resistant PANC-1 cells at 40 to 160 nM incubated for 24 hrs by Western blotting", "assay_type": "functional, cell-based", "details": "dose 40-160 nM"}, "[13]": {"system": "Gemcitabine-resistant PANC-1", "assay": "Effect on Akt expression in human Gemcitabine-resistant PANC-1 cells at 40 to 160 nM by Western blot analysis", "assay_type": "functional, cell-based", "details": "dose 40-160 nM"}, "[14]": {"system": "Gemcitabine-resistant PANC-1", "assay": "Effect on p70S6K expression in human Gemcitabine-resistant PANC-1 cells at 40 to 160 nM by Western blot analysis", "assay_type": "functional, cell-based", "details": "dose 40-160 nM"}, "[15]": {"system": "Gemcitabine-resistant PANC-1", "assay": "Effect on STAT5 expression in human Gemcitabine-resistant PANC-1 cells at 40 to 160 nM by Western blot analysis", "assay_type": "functional, cell-based", "details": "dose 40-160 nM"}, "[16]": {"system": "Gemcitabine-resistant PANC-1", "assay": "Cell cycle distribution in human Gemcitabine-resistant PANC-1 cells assessed as sub-G1 phase cells at 40 nM incubated for 24 hrs by RNase/PI staining based flow cytometric analysis (reference value: 0.30 %)", "assay_type": "functional"}, "[17]": {"system": "Gemcitabine-resistant PANC-1", "assay": "Cell cycle distribution in human Gemcitabine-resistant PANC-1 cells assessed as sub-G1 phase cells at 80 nM incubated for 24 hrs by RNase/PI staining based flow cytometric analysis (reference value: 0.30 %)", "assay_type": "functional"}, "[18]": {"system": "Gemcitabine-resistant PANC-1", "assay": "Cell cycle distribution in human Gemcitabine-resistant PANC-1 cells assessed as sub-G1 phase cells at 120 nM incubated for 24 hrs by RNase/PI staining based flow cytometric analysis (reference value: 0.30 %)", "assay_type": "functional"}, "[19]": {"system": "Gemcitabine-resistant PANC-1", "assay": "Cell cycle distribution in human Gemcitabine-resistant PANC-1 cells assessed as G0-G1 phase cells at 80 nM incubated for 24 hrs by RNase/PI staining based flow cytometric analysis (reference value: 45.21 %)", "assay_type": "functional"}, "[20]": {"system": "Gemcitabine-resistant PANC-1", "assay": "Cell cycle distribution in human Gemcitabine-resistant PANC-1 cells assessed as G2/M phase cells at 40 nM incubated for 24 hrs by RNase/PI staining based flow cytometric analysis (reference value: 37.53 %)", "assay_type": "functional"}, "[21]": {"system": "Gemcitabine-resistant PANC-1", "assay": "Induction of cell cycle arrest in human Gemcitabine-resistant PANC-1 cells assessed as downregulation of CDK2 protein expression level at 40 to 160 nM incubated for 24 hrs by Western blot analysis", "assay_type": "functional, cell-based", "details": "dose 40-160 nM"}, "[22]": {"system": "Gemcitabine-resistant PANC-1", "assay": "Induction of cell cycle arrest in human Gemcitabine-resistant PANC-1 cells assessed as upregulation of cyclin B1 protein expression level at 40 to 160 nM incubated for 24 hrs by Western blot analysis", "assay_type": "functional, cell-based", "details": "dose 40-160 nM"}, "[23]": {"system": "Gemcitabine-resistant PANC-1", "assay": "Induction of cell cycle arrest in human Gemcitabine-resistant PANC-1 cells assessed as upregulation of p27 protein expression level at 40 to 160 nM incubated for 24 hrs by Western blot analysis", "assay_type": "functional, cell-based", "details": "dose 40-160 nM"}, "[24]": {"system": "Gemcitabine-resistant PANC-1", "assay": "Induction of apoptosis in human Gemcitabine-resistant PANC-1 cells assessed as upregulation of cleaved PARP level at 160 nM incubated for 48 hrs by Western blot analysis", "assay_type": "functional, cell-based"}, "[25]": {"system": "Gemcitabine-resistant PANC-1", "assay": "Induction of apoptosis in human Gemcitabine-resistant PANC-1 cells assessed as upregulation of cleaved caspase-8 level at 160 nM incubated for 48 hrs by Western blot analysis", "assay_type": "functional, cell-based"}, "[26]": {"system": "Gemcitabine-resistant PANC-1", "assay": "Induction of apoptosis in human Gemcitabine-resistant PANC-1 cells assessed as upregulation of cleaved caspase-3 level at 160 nM incubated for 48 hrs by Western blot analysis", "assay_type": "functional, cell-based"}, "[27]": {"assay": "Toxicity in male BALB/c nude mouse at 40 mg/kg, ip", "assay_type": "organism-based", "details": "in vivo"}, "[28]": {"assay": "Toxicity in male BALB/c nude mouse assessed as animal death at 40 mg/kg, ip", "assay_type": "organism-based", "details": "in vivo"}, "[29]": {"assay": "Toxicity in male BALB/c nude mouse xenografted with human Gemcitabine-resistant PANC-1 cells at 10 mg/kg, ip administered three times in a week for 20 days", "assay_type": "organism-based", "details": "in vivo, 480 h, time 20 day"}, "[30]": {"assay": "Toxicity in male BALB/c nude mouse xenografted with human Gemcitabine-resistant PANC-1 cells assessed as body weight change at 10 mg/kg, ip administered three times in a week for 20 days", "assay_type": "organism-based", "details": "in vivo, 480 h, time 20 day"}, "[31]": {"system": "Gemcitabine-resistant PANC-1", "assay": "Antitumor activity against human Gemcitabine-resistant PANC-1 cells xenografted in male BALB/c nude mouse assessed as reduction in tumor weight at 10 mg/kg, ip administered three times in a week for 20 days relative to control", "assay_type": "functional", "set-up": "scale not given: the % may be the effect or the level left", "details": "time 20 day"}, "[32]": {"biological_target": "T1, Protein kinase C beta type", "assay": "Induction of thermal stabilization of PKCbeta1 in human Gemcitabine-resistant PANC-1 cells at 10 uM incubated for 1 hrs at 40 to 65 degreeC by CETSA", "assay_type": "cell-based"}}, "note": "The source made the active and inactive calls. The calls are words filed in the database; no cut-off is given here.", "data": [{"compound": "CC(=O)Oc1ccc2[nH]c3c(c2c1)CCN1C(=O)c2ccccc2N(C)[C@H]31", "values": [{"measurement": "IC50", "setting": "PANC-1", "result": "≤ 80", "unit": "nM"}, {"measurement": "IC50 at 72 h", "setting": "[1]", "result": "> 50000", "unit": "nM"}, {"measurement": "inhibition", "setting": "[2]", "result": "Active"}, {"measurement": "IC50 at 72 h", "setting": "[3]", "result": 2950, "unit": "nM"}, {"measurement": "IC50", "setting": "[4]", "result": 117, "unit": "nM"}, {"measurement": "inhibition", "setting": "[5]", "result": "Dose-Dependent Effect"}, {"measurement": "Activity", "setting": "[6]", "result": "Active"}, {"measurement": "Activity", "setting": "[7]", "result": "inactive"}, {"measurement": "Activity", "setting": "[8]", "result": "inactive"}, {"measurement": "inhibition", "setting": "[9]", "result": "Active"}, {"measurement": "Activity", "setting": "[10]", "result": "Active"}, {"measurement": "Activity", "setting": "[11]", "result": "Active"}, {"measurement": "Activity", "setting": "[12]", "result": "Active"}, {"measurement": "Activity", "setting": "[13]", "result": "inactive"}, {"measurement": "Activity", "setting": "[14]", "result": "inactive"}, {"measurement": "Activity", "setting": "[15]", "result": "inactive"}, {"measurement": "Activity", "setting": "[16]", "result": 0.34, "unit": "%"}, {"measurement": "Activity", "setting": "[17]", "result": 1.31, "unit": "%"}, {"measurement": "Activity", "setting": "[18]", "result": 1.6, "unit": "%"}, {"measurement": "Activity", "setting": "[19]", "result": 34.14, "unit": "%"}, {"measurement": "Activity", "setting": "[20]", "result": 39.38, "unit": "%"}, {"measurement": "Activity", "setting": "[21]", "result": "Active"}, {"measurement": "Activity", "setting": "[22]", "result": "Active"}, {"measurement": "Activity", "setting": "[23]", "result": "Active"}, {"measurement": "Activity", "setting": "[24]", "result": "Active"}, {"measurement": "Activity", "setting": "[25]", "result": "Active"}, {"measurement": "Activity", "setting": "[26]", "result": "Active"}, {"measurement": "Activity", "setting": "[27]", "result": "Non-Toxic"}, {"measurement": "Activity", "setting": "[28]", "result": "Non-Toxic"}, {"measurement": "Activity", "setting": "[29]", "result": "Non-Toxic"}, {"measurement": "Activity", "setting": "[30]", "result": "Non-Toxic"}, {"measurement": "Activity", "setting": "[31]", "result": 44.89, "unit": "%"}, {"measurement": "Activity", "setting": "[32]", "result": "Active"}]}]}
